Tests used:
Conditions in all cases: Compound concentration 100.0 nM
[1] = target: RAC-alpha serine/threonine-protein kinase (Homo sapiens) (UniProt P31749)
[2] = target: Tyrosine-protein kinase Blk (Homo sapiens) (UniProt P51451)
[3] = target: Serine/threonine-protein kinase BRSK2 (Homo sapiens) (UniProt Q8IWQ3)
[4] = target: Calcium/calmodulin-dependent protein kinase type IV (Homo sapiens) (UniProt Q16566)
[5] = target: Calcium/calmodulin-dependent protein kinase kinase 1 (Homo sapiens) (UniProt Q8N5S9)
[6] = target: Cyclin-dependent kinase 11A (Homo sapiens) (UniProt Q9UQ88)
[7] = target: Cyclin-dependent kinase 5 (Homo sapiens) (UniProt Q00535)
[8] = target: Casein kinase I isoform epsilon (Homo sapiens) (UniProt P49674)
[9] = target: Myotonin-protein kinase (Homo sapiens) (UniProt Q09013)
[10] = target: Eukaryotic translation initiation factor 2-alpha kinase 1 (Homo sapiens) (UniProt Q9BQI3)
[11] = target: Ephrin type-A receptor 6 (Homo sapiens) (UniProt Q9UF33)
[12] = target: Mitogen-activated protein kinase 4 (Homo sapiens) (UniProt P31152)
[13] = target: Receptor-type tyrosine-protein kinase FLT3 (Homo sapiens) (UniProt P36888)
[14] = tested on: Receptor-type tyrosine-protein kinase FLT3 (Homo sapiens), P36888 [D835Y]
[15] = tested on: Receptor-type tyrosine-protein kinase FLT3 (Homo sapiens), P36888 [K663Q]
[16] = tested on: Receptor-type tyrosine-protein kinase FLT3 (Homo sapiens), P36888 [N841I]
[17] = target: Glycogen synthase kinase-3 alpha (Homo sapiens) (UniProt P49840)
[18] = target: Homeodomain-interacting protein kinase 2 (Homo sapiens) (UniProt Q9H2X6)
[19] = target: Homeodomain-interacting protein kinase 3 (Homo sapiens) (UniProt Q9H422)
[20] = target: Serine/threonine-protein kinase MAK (Homo sapiens) (UniProt P20794)
[21] = target: Dual specificity mitogen-activated protein kinase kinase 6 (Homo sapiens) (UniProt P52564)
[22] = tested on: Hepatocyte growth factor receptor (Homo sapiens), P08581 [M1250T]
[23] = target: Misshapen-like kinase 1 (Homo sapiens) (UniProt Q8N4C8)
[24] = target: Macrophage-stimulating protein receptor (Homo sapiens) (UniProt Q04912)
[25] = target: Serine/threonine-protein kinase Nek1 (Homo sapiens) (UniProt Q96PY6)
[26] = target: Serine/threonine-protein kinase Nek6 (Homo sapiens) (UniProt Q9HC98)
[27] = target: Serine/threonine-protein kinase NIM1 (Homo sapiens) (UniProt Q8IY84)
[28] = target: Serine/threonine-protein kinase NLK (Homo sapiens) (UniProt Q9UBE8)
[29] = tested on: Phosphatidylinositol 4,5-bisphosphate 3-kinase catalytic subunit alpha isoform (Homo sapiens), P42336 [E542K]
[30] = target: Serine/threonine-protein kinase pim-1 (Homo sapiens) (UniProt P11309)
[31] = target: Phosphatidylinositol 5-phosphate 4-kinase type-2 beta (Homo sapiens) (UniProt P78356)
[32] = target: Membrane-associated tyrosine- and threonine-specific cdc2-inhibitory kinase (Homo sapiens) (UniProt Q99640)
[33] = target: Serine/threonine-protein kinase N1 (Homo sapiens) (UniProt Q16512)
[34] = target: Serine/threonine-protein kinase PLK3 (Homo sapiens) (UniProt Q9H4B4)
[35] = target: Protein kinase C epsilon type (Homo sapiens) (UniProt Q02156)
[36] = target: Proto-oncogene tyrosine-protein kinase receptor Ret (Homo sapiens) (UniProt P07949)
[37] = target: Receptor-interacting serine/threonine-protein kinase 2 (Homo sapiens) (UniProt O43353)
[38] = target: Tyrosine-protein kinase Srms (Homo sapiens) (UniProt Q9H3Y6)
[39] = target: Serine/threonine-protein kinase 16 (Homo sapiens) (UniProt O75716)
[40] = target: Angiopoietin-1 receptor (Homo sapiens) (UniProt Q02763)
[41] = target: Serine/threonine-protein kinase tousled-like 2 (Homo sapiens) (UniProt Q86UE8)
[42] = target: BDNF/NT-3 growth factors receptor (Homo sapiens) (UniProt Q16620)
[43] = target: Serine/threonine-protein kinase ULK2 (Homo sapiens) (UniProt Q8IYT8)
[44] = target: Vascular endothelial growth factor receptor 2 (Homo sapiens) (UniProt P35968)
[45] = target: Mitogen-activated protein kinase kinase kinase 20 (Homo sapiens) (UniProt Q9NYL2)
Chain of Mitogen-activated protein kinase kinase kinase 20 (Homo sapiens) (Q9NYL2 2-800 limits assumed): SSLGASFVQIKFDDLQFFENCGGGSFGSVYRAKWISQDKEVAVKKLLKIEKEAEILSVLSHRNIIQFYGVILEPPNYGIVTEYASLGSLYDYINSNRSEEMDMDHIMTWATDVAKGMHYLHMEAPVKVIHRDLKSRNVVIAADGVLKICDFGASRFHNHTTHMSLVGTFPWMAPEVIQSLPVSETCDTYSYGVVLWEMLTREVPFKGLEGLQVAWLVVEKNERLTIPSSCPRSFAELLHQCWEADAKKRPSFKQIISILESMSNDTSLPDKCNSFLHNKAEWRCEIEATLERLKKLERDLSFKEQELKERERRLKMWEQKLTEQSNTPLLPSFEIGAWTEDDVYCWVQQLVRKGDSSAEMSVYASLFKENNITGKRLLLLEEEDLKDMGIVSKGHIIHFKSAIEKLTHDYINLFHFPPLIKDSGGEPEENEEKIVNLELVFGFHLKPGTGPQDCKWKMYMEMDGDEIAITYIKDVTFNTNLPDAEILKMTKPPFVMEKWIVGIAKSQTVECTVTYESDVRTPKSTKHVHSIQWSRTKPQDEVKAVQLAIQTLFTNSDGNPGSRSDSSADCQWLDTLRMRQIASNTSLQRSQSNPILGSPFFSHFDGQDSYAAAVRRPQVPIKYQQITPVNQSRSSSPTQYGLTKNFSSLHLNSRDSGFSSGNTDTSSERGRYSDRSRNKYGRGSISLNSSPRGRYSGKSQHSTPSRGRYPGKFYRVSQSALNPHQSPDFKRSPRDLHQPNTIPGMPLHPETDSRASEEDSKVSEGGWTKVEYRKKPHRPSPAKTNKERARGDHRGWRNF

Chain of Phosphatidylinositol 4,5-bisphosphate 3-kinase catalytic subunit alpha isoform (Homo sapiens), P42336 [E542K] (P42336 whole entry E542K, canonical isoform): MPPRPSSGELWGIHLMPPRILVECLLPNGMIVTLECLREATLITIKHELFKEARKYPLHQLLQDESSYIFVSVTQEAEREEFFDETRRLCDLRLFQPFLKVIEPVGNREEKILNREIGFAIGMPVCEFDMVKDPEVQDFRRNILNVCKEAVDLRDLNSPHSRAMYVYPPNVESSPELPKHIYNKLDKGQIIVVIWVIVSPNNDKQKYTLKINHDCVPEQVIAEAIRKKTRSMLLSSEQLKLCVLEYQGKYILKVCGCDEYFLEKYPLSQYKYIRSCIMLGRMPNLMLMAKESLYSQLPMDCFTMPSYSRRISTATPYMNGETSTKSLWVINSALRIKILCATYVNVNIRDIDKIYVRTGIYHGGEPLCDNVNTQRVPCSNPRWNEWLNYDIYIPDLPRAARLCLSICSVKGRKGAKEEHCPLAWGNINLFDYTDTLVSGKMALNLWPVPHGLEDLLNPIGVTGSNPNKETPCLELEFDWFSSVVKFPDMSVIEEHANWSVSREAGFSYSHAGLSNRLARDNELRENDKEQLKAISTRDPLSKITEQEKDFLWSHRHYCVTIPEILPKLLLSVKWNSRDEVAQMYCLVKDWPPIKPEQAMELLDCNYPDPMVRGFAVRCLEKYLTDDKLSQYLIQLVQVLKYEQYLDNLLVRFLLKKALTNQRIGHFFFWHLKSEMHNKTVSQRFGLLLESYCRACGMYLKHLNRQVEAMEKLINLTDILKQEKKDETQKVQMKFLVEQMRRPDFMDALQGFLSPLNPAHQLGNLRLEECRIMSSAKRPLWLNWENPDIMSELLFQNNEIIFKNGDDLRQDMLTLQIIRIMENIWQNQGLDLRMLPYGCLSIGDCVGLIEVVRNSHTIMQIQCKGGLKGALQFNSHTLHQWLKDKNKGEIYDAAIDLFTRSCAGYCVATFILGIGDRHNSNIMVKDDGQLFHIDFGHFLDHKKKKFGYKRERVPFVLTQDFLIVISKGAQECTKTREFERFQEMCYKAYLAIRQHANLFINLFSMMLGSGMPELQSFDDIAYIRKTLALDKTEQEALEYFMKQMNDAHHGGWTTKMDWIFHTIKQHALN
Chain of Eukaryotic translation initiation factor 2-alpha kinase 1 (Homo sapiens) (Q9BQI3 whole entry): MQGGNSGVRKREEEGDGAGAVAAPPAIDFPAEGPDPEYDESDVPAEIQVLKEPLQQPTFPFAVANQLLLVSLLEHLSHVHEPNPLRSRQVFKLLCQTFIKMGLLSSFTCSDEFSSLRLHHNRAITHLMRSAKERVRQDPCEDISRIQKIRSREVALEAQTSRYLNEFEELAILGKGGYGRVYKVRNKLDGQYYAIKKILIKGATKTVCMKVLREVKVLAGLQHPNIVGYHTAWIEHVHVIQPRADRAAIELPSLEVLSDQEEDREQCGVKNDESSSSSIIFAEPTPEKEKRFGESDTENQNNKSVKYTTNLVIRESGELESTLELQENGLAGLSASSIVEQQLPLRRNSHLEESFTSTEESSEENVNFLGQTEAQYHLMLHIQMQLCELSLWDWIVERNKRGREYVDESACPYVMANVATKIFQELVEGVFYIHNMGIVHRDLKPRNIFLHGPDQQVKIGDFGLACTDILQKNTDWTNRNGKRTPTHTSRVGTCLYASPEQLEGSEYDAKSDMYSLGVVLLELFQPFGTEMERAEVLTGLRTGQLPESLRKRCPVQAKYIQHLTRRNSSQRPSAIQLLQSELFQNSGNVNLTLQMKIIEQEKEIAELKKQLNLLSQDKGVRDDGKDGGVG
Chain of Protein kinase C epsilon type (Homo sapiens) (Q02156 whole entry): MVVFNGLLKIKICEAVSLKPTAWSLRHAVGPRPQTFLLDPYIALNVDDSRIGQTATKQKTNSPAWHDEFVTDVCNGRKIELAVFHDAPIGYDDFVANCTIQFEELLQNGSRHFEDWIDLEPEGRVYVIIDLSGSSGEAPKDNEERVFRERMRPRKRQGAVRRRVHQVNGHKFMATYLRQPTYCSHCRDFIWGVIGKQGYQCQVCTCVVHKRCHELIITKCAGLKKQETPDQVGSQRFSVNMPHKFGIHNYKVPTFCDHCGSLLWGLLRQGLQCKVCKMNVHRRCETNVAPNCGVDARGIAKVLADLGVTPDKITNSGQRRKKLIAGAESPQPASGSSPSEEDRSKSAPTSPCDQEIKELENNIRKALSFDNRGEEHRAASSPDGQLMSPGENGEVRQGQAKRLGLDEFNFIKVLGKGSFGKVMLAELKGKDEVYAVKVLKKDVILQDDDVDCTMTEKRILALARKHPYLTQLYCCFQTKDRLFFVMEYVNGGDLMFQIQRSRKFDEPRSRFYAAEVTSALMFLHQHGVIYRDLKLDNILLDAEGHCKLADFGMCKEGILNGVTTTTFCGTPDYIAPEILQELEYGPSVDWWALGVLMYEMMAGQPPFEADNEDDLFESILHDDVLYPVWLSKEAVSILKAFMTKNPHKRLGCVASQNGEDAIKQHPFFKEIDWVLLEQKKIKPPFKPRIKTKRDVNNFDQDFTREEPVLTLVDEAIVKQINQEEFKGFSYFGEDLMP
Chain of Serine/threonine-protein kinase ULK2 (Homo sapiens) (Q8IYT8 whole entry): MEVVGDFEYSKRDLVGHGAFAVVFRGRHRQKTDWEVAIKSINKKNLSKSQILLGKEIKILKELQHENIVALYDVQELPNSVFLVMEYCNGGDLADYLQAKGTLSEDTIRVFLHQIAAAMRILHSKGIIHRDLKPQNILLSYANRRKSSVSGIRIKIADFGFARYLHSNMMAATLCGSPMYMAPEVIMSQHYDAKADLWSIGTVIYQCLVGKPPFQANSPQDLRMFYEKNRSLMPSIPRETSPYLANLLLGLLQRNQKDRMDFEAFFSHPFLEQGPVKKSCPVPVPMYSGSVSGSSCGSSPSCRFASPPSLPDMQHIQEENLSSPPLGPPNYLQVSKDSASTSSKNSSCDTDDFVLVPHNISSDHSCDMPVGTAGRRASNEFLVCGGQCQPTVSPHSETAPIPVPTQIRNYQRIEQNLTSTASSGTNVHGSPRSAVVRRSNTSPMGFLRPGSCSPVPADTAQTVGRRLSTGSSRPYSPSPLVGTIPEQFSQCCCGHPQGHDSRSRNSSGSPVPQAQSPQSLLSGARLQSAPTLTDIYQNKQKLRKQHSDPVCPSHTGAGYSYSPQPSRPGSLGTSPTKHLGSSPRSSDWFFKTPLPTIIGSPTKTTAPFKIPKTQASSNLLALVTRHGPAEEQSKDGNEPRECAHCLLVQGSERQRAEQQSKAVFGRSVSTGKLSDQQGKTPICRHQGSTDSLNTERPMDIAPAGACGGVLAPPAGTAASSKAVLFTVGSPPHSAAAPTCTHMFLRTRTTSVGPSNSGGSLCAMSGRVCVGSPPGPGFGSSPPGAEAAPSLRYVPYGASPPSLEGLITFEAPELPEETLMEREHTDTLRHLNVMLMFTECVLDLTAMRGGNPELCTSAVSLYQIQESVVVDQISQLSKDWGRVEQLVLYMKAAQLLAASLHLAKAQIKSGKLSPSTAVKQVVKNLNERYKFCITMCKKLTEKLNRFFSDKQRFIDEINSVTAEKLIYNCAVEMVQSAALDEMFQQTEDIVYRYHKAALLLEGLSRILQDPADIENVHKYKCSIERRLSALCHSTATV
Chain of Dual specificity mitogen-activated protein kinase kinase 6 (Homo sapiens) (P52564 whole entry): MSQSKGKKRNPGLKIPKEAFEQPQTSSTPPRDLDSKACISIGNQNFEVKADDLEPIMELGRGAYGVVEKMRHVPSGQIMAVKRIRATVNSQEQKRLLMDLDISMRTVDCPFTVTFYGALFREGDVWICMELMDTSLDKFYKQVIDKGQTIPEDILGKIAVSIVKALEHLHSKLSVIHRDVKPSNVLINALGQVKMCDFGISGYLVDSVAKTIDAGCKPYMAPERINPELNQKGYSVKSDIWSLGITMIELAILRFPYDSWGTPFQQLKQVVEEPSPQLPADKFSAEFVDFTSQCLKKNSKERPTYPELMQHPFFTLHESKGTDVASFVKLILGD
Chain of Serine/threonine-protein kinase 16 (Homo sapiens) (O75716 whole entry): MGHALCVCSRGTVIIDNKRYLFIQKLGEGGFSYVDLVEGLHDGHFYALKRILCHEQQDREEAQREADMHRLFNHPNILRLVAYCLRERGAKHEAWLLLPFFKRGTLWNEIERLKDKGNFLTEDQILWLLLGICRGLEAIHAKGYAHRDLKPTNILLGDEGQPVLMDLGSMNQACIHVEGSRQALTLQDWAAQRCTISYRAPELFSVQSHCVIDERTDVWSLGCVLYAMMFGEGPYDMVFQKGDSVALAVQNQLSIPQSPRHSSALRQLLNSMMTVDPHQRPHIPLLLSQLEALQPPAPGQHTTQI

`CS(=O)(=O)N1CCCC(NC(=O)[C@H](CCC2CCCCC2)NC(=O)c2ccc(CNc3ncnc4c3nnn4-c3ccccc3)cc2)C1` (stereo not given in full) [SR-301] gave a residual activity [1] of 100%, a residual activity [2] of 100% and a residual activity [3] of 79%. It also gave a residual activity [4] of 98%, a residual activity [5] of 88% and a residual activity [6] of 87%. For the same compound, the residual activity [7] was 94%, the residual activity [8] was 100% and the residual activity [9] was 100%. For the same compound, the residual activity [10] was 81%, the residual activity [11] was 100% and the residual activity [12] was 96%. It also gave a residual activity [13] of 82%, a residual activity [14] of 93% and a residual activity [15] of 94%. For the same compound, the residual activity [16] was 99%, the residual activity [17] was 100% and the residual activity [18] was 100%. It also gave a residual activity [19] of 100%, a residual activity [20] of 100% and a residual activity [21] of 67%. For the same compound, the residual activity [22] was 87%, the residual activity [23] was 85% and the residual activity [24] was 97%. For the same compound, the residual activity [25] was 51%, the residual activity [26] was 86% and the residual activity [27] was 60%. It also gave a residual activity [28] of 100%, a residual activity [29] of 64% and a residual activity [30] of 95%. For the same compound, the residual activity [31] was 100%, the residual activity [32] was 74% and the residual activity [33] was 98%. It also gave a residual activity [34] of 100%, a residual activity [35] of 63% and a residual activity [36] of 87%. It also gave a residual activity [37] of 59%, a residual activity [38] of 98% and a residual activity [39] of 100%. It also gave a residual activity [40] of 73%, a residual activity [41] of 82% and a residual activity [42] of 100%. The residual activity [43] was 100%, the residual activity [44] was 85% and the residual activity [45] was 89%.

For `CS(=O)(=O)N1CCCC(NC(=O)[C@H](CCC2CCCCC2)NC(=O)c2ccc(CNC(=O)c3cnc4ccccn34)cc2)C1` (stereo not given in full) [SR-302], the residual activity [1] was 100%, the residual activity [2] was 100% and the residual activity [3] was 100%. The residual activity [4] was 94%, the residual activity [5] was 84% and the residual activity [6] was 100%. The residual activity [7] was 100%, the residual activity [8] was 93% and the residual activity [9] was 98%. For the same compound, the residual activity [10] was 91%, the residual activity [11] was 100% and the residual activity [12] was 100%. For the same compound, the residual activity [13] was 82%, the residual activity [14] was 100% and the residual activity [15] was 100%. For the same compound, the residual activity [16] was 67%, the residual activity [17] was 100% and the residual activity [18] was 100%. For the same compound, the residual activity [19] was 100%, the residual activity [20] was 100% and the residual activity [21] was 72%. For the same compound, the residual activity [22] was 69%, the residual activity [23] was 85% and the residual activity [24] was 100%. The residual activity [25] was 68%, the residual activity [26] was 100% and the residual activity [27] was 64%. For the same compound, the residual activity [28] was 100%, the residual activity [29] was 78% and the residual activity [30] was 89%. It also gave a residual activity [31] of 100%, a residual activity [32] of 100% and a residual activity [33] of 72%. For the same compound, the residual activity [34] was 96%, the residual activity [35] was 83% and the residual activity [36] was 85%. The residual activity [37] was 30%, the residual activity [38] was 71% and the residual activity [39] was 100%. It also gave a residual activity [40] of 92%, a residual activity [41] of 89% and a residual activity [42] of 87%. It also gave a residual activity [43] of 100%, a residual activity [44] of 96% and a residual activity [45] of 79%.
